Patent publication US5952510A, “1,3-dihydro-1-(phenylalkenyl)-2H-imidazol-2-one derivatives having PDE IV and cytokine inhibiting activity” (Janssen Pharmaceutica, N.V., priority 1995, dated 1999)
pIC50: −log10 of the molar value.

Tests used:
[1] = biological target: T1, recombinant human MNL phosphodiesterase type IV B (Homo sapiens, UniProt Q07343); assay: Inhibition of recombinant human mononuclear lymphocyte (MNL) phosphodiesterase type IV B produced in insect cells with a baculovirus vector; assay type: biochemical; settings: 0.8 μM 3H-cAMP, pH 8, 37° C., 10 min; calculated graphically
T1 construct: made in house; host or cells: insect cells infected with recombinant baculovirus
T1 sequence (Q07343 whole entry): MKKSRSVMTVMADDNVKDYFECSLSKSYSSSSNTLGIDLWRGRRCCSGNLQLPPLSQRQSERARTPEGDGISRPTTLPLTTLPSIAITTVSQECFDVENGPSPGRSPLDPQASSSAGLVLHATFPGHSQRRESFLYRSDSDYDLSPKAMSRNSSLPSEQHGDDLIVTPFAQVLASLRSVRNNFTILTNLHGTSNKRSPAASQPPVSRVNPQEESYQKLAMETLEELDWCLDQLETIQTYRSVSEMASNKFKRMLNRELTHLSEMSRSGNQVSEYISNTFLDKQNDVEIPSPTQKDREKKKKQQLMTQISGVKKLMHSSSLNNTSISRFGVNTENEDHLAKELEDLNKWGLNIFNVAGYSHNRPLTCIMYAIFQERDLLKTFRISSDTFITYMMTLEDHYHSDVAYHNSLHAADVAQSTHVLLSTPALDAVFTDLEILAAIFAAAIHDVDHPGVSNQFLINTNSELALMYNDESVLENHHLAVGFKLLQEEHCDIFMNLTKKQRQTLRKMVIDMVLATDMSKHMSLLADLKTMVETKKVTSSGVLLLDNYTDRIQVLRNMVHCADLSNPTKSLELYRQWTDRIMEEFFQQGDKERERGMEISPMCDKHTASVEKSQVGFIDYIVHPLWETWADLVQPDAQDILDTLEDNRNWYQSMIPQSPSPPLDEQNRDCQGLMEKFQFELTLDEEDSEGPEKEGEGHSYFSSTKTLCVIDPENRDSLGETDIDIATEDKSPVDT
Experimental: Inhibition of recombinant human mononuclear lymphocyte (MNL) phosphodiesterase type IV B produced in insect cells with a baculovirus vector, The alleviating and/or curing effect of the instant compounds on allergic and atopic diseases was assessed by an in vitro assay system to detect an inhibiting effect on the recombinant human MNL phosphodiesterase type IV B.
Seventy-two hours after infection with recombinant baculovirus, the insect cells were harvested and pelleted at 500 g for 5 minutes. The cells were lysed in 10 ml lysis-buffer consisting of 20 mM Tris, 10 mM EGTA, 2 mM Na2 EDTA, 1% Triton-X-100, 1 mM Na3 VO4, 10 mM NaF, 2 μg/ml of leupeptine, pepstatine and aprotinine, 0.3 μg/ml benzamidine and 100 μg/ml TPCK pH 7.5. After 5 minutes on ice, solubilized cells were centrifuged at 4000 rpm for 15 minutes at 4° C. The resulting supernatant was filtered through a 0.45 μm filter (Millipore) and brought to TBS buffer (50 mM Tris, 150 mM NaCl pH 7.4).
The supernatant containing phosphodiesterase (PDE) type IV B, was subsequently loaded onto a 5 ml anti-FLAG-M2 affinity gel column, previously activated with 5 ml 100 mM glycine pH 3.5 and equilibrated with 20 ml 50 mM Tris, 150 mM NaCl pH 7.4. After washing the column with equilibration buffer, PDE IV was eluted in 1.5 ml fractions containing 37.5 μl 1M Tris pH 8. The fractions were dialyzed overnight against 20 mM Tris, 2 mM Na2 EDTA and 400 mM NaCl pH 7.5 and tested for PDE IV activity. Indentification was done on SDS PAGE and Western Blot (anti-FLAG-M2). Active fractions were pooled, brought to 10% glycerol and stored at -70° C.
The incubation mixture (pH 8) (200 μl) contained 20 mM Tris, 10 mM magnesium sulphate, 0.8 μM ^3 H-cAMP (310 mCi/mmole) and the phosphodiesterase type IV, the amount depending on the enzymatic activity. […]
The inhibiting effect of the present compounds on recombinant human MNL phosphodiesterase PDE IV B was measured at different concentrations of the instant compounds. The IC50 values (expressed in M) were calculated graphically from the thus obtained inhibition values.

[2] = tested on: Dextran-induced oedema formation in mouse ear; assay: Dextran-induced oedema formation in mouse ear; assay type: in vivo, Male Swiss mice; settings: 5 mg/kg, oral, one hour before intravenous dextran T500 + pontamine sky-blue dye; compared with background extravasation
Experimental: Dextran-induced oedema formation in mouse ear.
Systemic injection of dextran T500 in normal, non-sensitized mice elicits increased vascular permeability, leading to extravasation and oedema of the extremities. When dextran is injected together with a blue dye, blueing of the ears is the most prominent feature of oedematous response.
Male Swiss mice weighing 24-26 g were orally pretreated with the test compound dissolved in PEG-200 at different concentrations or solvent. One hour later, the mice were given an intravenous injection with an isotonic saline solution containing 12 mg/ml dextran T500 and 2.6 mg/ml pontamine sky-blue dye, in a volume of 0.1 ml per 10 g body weight. One hour and forty-five minutes later, the animals are sacrificed by ether and their ears removed. Extraction and quantification of the extravasated dye is done as described by Van Wauwe and Goossens (Drug Dev. Res. 1986, 8, 213-218).
The extravasation of the dye is characterized by the blueing value which is defined as the concentration of the extracted dye in both ears. The background blueing value was determined once as the mean blueing value obtained by injecting a group of mice with a saline solution containing only dextran T500 and the blue dye. Table 1 lists the percentage inhibition of the extravasation of the dye when compared with the background extravasation of the dye when the test compound was administered at a dose of 5 mg/kg.

Row | SMILES | pIC50 [1] | % inhibition of the extravasation of the dye [2] [%]
1 | COc1ccc(/C(C)=C\n2ccn(C(c3ccccc3)c3ccccc3)c2=O)cc1OC1CCCC1 [Compound 12, (Z)-1-[2-[3-(cyclopentyloxy)-4-methoxyphenyl]-1-propenyl]-3-(diphenylmethyl)-2H-imidazol-2-one] | > 6.00 | 
2 | COc1ccc(/C(=C\n2cc[nH]c2=O)CC(=O)O)cc1OC1CCCC1 [Compound 7, (Z)-3-(cyclopentyloxy)-β-[(2,3-dihydro-2-oxo-1H-imidazol-1-yl)methylene]4-methoxybenzenepropanoic acid] |  | 49.9
3 | COc1ccc(/C(=C\n2ccn(C(c3ccccc3)c3ccccc3)c2=O)c2ccccc2)cc1OC1CCCC1 [Compound 11, (Z)-1-[2-[3-(cyclopentyloxy)-4-methoxyphenyl]-2-phenylethenyl]-3-(diphenylmethyl)-1,3-dihydro-2H-imidazol-2-one] |  | 19.3
4 | COc1ccc(C(=CN2CCN(C(C)=O)C2=O)c2ccccc2)cc1OC [Compound 9, 1-acetyl-3-[2-(3,4dimethoxyphenyl)-2-phenylethenyl]-2-imidazolidinone] |  | 11.1
5 | COc1ccc(/C(=C/n2ccn(C(c3ccccc3)c3ccccc3)c2=O)c2ccccc2)cc1OC1CCCC1 [Compound 10, (E)-1-[2-[3-(cyclopentyloxy)-4-methoxyphenyl]-2-phenylethenyl]-3-(diphenylmethyl)-1,3dihydro-2H-imidazol-2-one] |  | 40.1
6 | COc1ccc(/C(=C/n2cc[nH]c2=O)c2ccccc2)cc1OC1CCCC1 [Compound 2, (E)-1-[2-[3-(cyclopentyloxy)-4-methoxyphenyl]-2-phenylethenyl]-1,3-dihydro-2H-imidazol-2-one] | > 6.00 | 15.5
7 | COc1ccc(C(=CN2CCNC2=O)c2ccccc2)cc1OC [Compound 8, 1-[2-(3,4-dimethoxyphenyl)-2-phenylethenyl]-2-imidazolidinone] |  | 17.9
8 | CCOC(=O)C/C(=C\n1cc[nH]c1=O)c1ccc(OC)c(OC2CCCC2)c1 [Compound 4, ethyl (E)-3-(cyclopentyloxy)-β-[(2,3dihydro-2-oxo-1H-imidazol-1-yl)methylene]-4methoxybenzene-propanoate] | > 6.00 | 25.9
